Tests used:
SOD1-G93A mice [1] = system: SOD1-G93A mice
Procedure: Drug Treatment and Survival Analysis:
Baseline and study measures were recorded for weight, grip strength, food consumption, and survival. Determination of end-stage was the inability for a mouse to right itself after 30 seconds of being placed on its side.

liver of SOD1-G93A mice = details: mouse, in vivo
Procedure: Periodic Acid Schiff Staining:
Saline perfused liver was postfixed with 4% paraformaldehyde for 24 h followed by 24 h incubation in 30% sucrose solution, embedded in OCT solution, and stored at −80° C. until sectioned (10 μm thickness). Sections were hydrated with water, immersed in PAS solutions (Sigma; 395) for 5 min at room temperature, and washed in water. Sections were immersed for 4 min in Schiff's reagent and washed in water for 5 min. Sections were counterstained with hematoxylin solution, dehydrated in ethanol and HemoD solution, mounted, and imaged.

ALS = ALS patients; cited from earlier work
SOD1-G93A mice [2] = test: Compound muscle action potential (CMAP) recordings; type: in vivo; details: 140 day SOD1-G93A mice
Excerpt: Compound Muscle Action Potential (CMAP) Recordings:
Mice were anesthetized with 1% isoflurane and 0.5% oxygen. Following dermatomoty, stainless steel-stimulating needle electrodes were inserted at the sciatic notch, near the sciatic nerve. A ground electrode was placed subcutaneously in the back, and a reference electrode placed subcutaneously at the ankle. The sciatic nerve was stimulated (0.2 ms duration; 1.6 mV amplitude) and the response recorded via a needle electrode inserted into the plantar muscle in the medial half of the foot, following the line connecting the first and fifth tarsal/metatarsal joints. Data was collected using ADI Powerlab 8/30 stimulator and BioAMP amplifier (ADInstruments, Colorado Springs, Colo.) and analyzed using Scope 3.5.6 (ADInstruments). The compound muscle action potential (M-wave) amplitude was measured from baseline to peak. Data was averaged between left and right hind limb traces.

COc1cc2c(cc1OC)CN(CCc1ccc(NC(=O)c3cccc4c(=O)c5cccc(OC)c5[nH]c34)cc1)CC2 [elacridar, N-[4-[2-(3,4-dihydro-6,7-dimethoxy-2(1H)-isoquinolinyl)ethyl]phenyl]-9,10-dihydro-5-methoxy-9-oxo-4-acridine carboxamide]
effect on disease progression / survival (SOD1-G93A mice [1]; chronic elacridar alone, beginning at disease onset, SOD1-G93A mice): did not alter disease progression
safety of chronic treatment (SOD1-G93A mice [1]; mouse, in vivo): safe
liver toxicity (periodic acid Schiff staining) (liver of SOD1-G93A mice): did not cause liver toxicity

Nc1nc2ccc(OC(F)(F)F)cc2s1 [riluzole, 6-(trifluoromethoxy)benzothiazol-2-amine]
slowing of disease progression (ALS): 3-9 months
CMAP peak amplitude (SOD1-G93A mice [2]): 5.00±0.67 mV
